Experimental data: ChEMBL document CHEMBL3526122, “Identification of UDP-glucuronosyltransferases responsible for the glucuronidation of darexaban, an oral factor Xa inhibitor, in human liver and intestine” (Drug Metab Dispos, 2012)

Tests used:
[1] = target: T1, UDP-glucuronosyltransferase 1A10 (Homo sapiens, UniProt Q9HAW8); assay: Ratio of Ki to Km for human recombinant UGT1A10 expressed in baculovirus-infected insect cells; type: ADME; details: recombinant enzyme
T1 sequence (Q9HAW8 whole entry): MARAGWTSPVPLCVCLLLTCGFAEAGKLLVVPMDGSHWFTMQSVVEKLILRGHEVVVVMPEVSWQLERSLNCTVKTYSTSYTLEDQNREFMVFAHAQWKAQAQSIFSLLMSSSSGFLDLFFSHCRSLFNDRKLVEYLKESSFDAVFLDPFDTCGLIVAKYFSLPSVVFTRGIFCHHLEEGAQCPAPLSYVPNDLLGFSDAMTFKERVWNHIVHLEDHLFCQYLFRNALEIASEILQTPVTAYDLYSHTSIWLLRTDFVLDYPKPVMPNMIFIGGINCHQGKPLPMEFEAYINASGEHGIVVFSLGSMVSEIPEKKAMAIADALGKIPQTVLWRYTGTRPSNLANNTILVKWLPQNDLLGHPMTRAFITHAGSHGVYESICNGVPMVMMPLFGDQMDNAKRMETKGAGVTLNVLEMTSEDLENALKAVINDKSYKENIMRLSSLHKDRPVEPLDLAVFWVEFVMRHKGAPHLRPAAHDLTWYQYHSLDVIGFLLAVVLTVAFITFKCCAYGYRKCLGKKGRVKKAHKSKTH

[2] = Intrinsic clearance in human intestinal microsomes assessed per mg of protein at 1 to 250 uM after 5 mins in presence of UDPGA; type: ADME, Intestine, Microsome
[3] = target: T2, UDP-glucuronosyltransferase 1A9 (Homo sapiens, UniProt O60656); assay: Activity of recombinant human UGT1A9 expressed in baculovirus-infected insect cells assessed as enzyme-mediated glucuronidation per mg of protein after 5 mins in presence of UDPGA; type: ADME
T2 sequence (O60656 whole entry): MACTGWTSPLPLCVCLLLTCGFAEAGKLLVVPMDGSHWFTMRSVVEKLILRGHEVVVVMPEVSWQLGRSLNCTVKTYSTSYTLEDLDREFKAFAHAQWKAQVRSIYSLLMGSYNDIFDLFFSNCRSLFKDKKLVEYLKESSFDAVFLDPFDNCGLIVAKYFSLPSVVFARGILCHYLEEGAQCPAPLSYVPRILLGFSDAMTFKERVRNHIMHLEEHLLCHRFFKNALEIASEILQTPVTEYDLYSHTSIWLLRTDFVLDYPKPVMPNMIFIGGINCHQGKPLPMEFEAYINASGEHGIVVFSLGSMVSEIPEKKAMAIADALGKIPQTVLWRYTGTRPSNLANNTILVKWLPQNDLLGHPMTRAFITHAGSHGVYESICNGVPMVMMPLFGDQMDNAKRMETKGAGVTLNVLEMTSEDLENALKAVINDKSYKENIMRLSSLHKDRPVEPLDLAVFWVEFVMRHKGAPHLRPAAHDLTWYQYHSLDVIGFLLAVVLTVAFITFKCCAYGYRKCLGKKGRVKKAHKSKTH

[4] = target: T3, UDP-glucuronosyltransferase 1A7 (Homo sapiens, UniProt Q9HAW7); assay: Activity of human recombinant UGT1A7 expressed in baculovirus-infected insect cells assessed as enzyme-mediated glucuronidation per mg of protein after 10 mins in presence of UDPGA; type: ADME
T3 sequence (Q9HAW7 whole entry): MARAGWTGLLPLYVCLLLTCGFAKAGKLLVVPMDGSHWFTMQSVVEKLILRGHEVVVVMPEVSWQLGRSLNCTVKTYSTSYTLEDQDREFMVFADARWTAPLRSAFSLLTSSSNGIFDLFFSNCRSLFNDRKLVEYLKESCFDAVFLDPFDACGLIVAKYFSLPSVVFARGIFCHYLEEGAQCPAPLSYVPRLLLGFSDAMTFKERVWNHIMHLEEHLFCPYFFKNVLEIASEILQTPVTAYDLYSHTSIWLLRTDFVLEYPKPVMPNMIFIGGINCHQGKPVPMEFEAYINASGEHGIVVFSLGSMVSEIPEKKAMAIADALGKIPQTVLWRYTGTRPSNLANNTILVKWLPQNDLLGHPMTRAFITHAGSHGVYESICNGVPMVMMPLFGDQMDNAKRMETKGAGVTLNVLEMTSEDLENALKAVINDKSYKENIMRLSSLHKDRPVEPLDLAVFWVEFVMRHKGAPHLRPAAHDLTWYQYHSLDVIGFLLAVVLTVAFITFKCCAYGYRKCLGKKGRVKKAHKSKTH

[5] = target: T4, UDP-glucuronosyltransferase 1A1 (Homo sapiens, UniProt P22309); assay: Activity of human recombinant UGT1A1 expressed in baculovirus-infected insect cells assessed as enzyme-mediated glucuronidation per mg of protein after 10 mins in presence of UDPGA; type: ADME
T4 sequence (P22309 whole entry): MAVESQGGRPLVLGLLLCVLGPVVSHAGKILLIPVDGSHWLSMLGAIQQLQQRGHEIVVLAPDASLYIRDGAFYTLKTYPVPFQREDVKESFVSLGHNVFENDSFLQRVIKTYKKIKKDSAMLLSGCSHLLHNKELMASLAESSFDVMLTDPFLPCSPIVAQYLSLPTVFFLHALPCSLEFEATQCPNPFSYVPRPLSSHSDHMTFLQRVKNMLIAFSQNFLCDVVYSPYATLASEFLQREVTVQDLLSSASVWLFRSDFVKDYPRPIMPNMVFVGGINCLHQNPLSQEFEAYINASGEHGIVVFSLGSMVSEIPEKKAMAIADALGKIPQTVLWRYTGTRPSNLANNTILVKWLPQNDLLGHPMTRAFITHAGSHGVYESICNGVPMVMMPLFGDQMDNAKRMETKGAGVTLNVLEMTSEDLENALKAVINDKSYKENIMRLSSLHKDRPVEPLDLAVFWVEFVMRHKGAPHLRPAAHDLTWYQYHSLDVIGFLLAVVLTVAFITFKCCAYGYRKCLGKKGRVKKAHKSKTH

[6] = target: T2, UDP-glucuronosyltransferase 1A9; assay: Activity of human recombinant UGT1A9 expressed in baculovirus-infected insect cells assessed as unbound intrinsic clearance for enzyme-mediated glucuronidation per mg of protein after 5 mins by Michaelis-Menten plot analysis in presence of UDPGA and 0.5% fatty acid free BSA; type: ADME
[7] = Drug metabolism in human intestinal microsomes assessed as glucuronidation at 30 uM after 5 mins by LC-MS/MS analysis relative to vehicle-treated control in presence of beta-estradiol and UDPGA; type: ADME, Intestine, Microsome; details: with beta-estradiol, read-out: Drug metabolism
[8] = Drug metabolism in human liver microsomes assessed as glucuronidation after 10 mins by Michaelis-Menten plot analysis in presence of UDPGA and 0.1% fatty acid free BSA; type: ADME; details: read-out: Km(unbound)

Work on `COc1ccc(C(=O)Nc2cccc(O)c2NC(=O)c2ccc(N3CCCN(C)CC3)cc2)cc1.O=C(O)CCC(=O)O` yielded a Ratio [1] of 6.9, a clearance [2] of 166 µL/min/mg and a Drug metabolism [3] of 2.43 nmol/min/mg. It also gave a Drug metabolism [4] of 0.251 nmol/min/mg, a Drug metabolism [5] of under 0.01 nmol/min/mg and a CL free [6] of 257 µL/min/mg. For the same compound, the activity at 5 min, 30 µM [7] was 22.6% and the Km at 10 min [8] was 17.7 µM.
